Data published in ChEMBL document CHEMBL4813981, “Synthesis and in vitro antibacterial activity of new aminothiazole-oximepiperidone cephalosporins” (2021).
Converted amounts (≈) assume the structure as drawn.

Key:
Pseudomonas aeruginosa [1] = experiment: Bactericidal activity against carbapenem-sensitive Pseudomonas aeruginosa 17-10 assessed as reduction in bacterial growth; type: functional
Klebsiella pneumoniae [2] = experiment: Antibacterial activity against Multidrug resistant Klebsiella pneumoniae KR 15-1 assessed as reduction in bacterial growth in the presence of Avibactam; type: functional
Klebsiella pneumoniae [3] = experiment: Antibacterial activity against ESBLs positive Carbapenem-sensitive Klebsiella pneumoniae 17-1 assessed as reduction in bacterial growth in the presence of Avibactam; type: functional
Klebsiella pneumoniae [4] = experiment: Antibacterial activity against Carbapenem- resistant Klebsiella pneumoniae KR 15-8 assessed as reduction in bacterial growth
Klebsiella pneumoniae [5] = experiment: Bactericidal activity against Carbapenem- resistant Klebsiella pneumoniae KR 15-5 assessed as reduction in bacterial growth in the presence of avibactam; type: functional
Escherichia coli [6] = experiment: Bactericidal activity against ESBLs negative Carbapenem--sensitive Escherichia coli 17-7 assessed as reduction in bacterial growth; type: functional
Pseudomonas aeruginosa [7] = experiment: Bactericidal activity against carbapenem-sensitive Pseudomonas aeruginosa 17-7 assessed as reduction in bacterial growth; type: functional
Klebsiella aerogenes [8] = experiment: Bactericidal activity against Enterobacter aerogenes 15-4 assessed as reduction in bacterial growth; type: functional
Pseudomonas aeruginosa [9] = experiment: Antibacterial activity against Carbapenem- sensitive Pseudomonas aeruginosa 17-11 assessed as reduction in bacterial growth; type: functional
Pseudomonas aeruginosa [10] = experiment: Antibacterial activity against Carbapenem- sensitive Pseudomonas aeruginosa 17-22 assessed as reduction in bacterial growth in the presence of Avibactam; type: functional
Klebsiella aerogenes [11] = experiment: Antibacterial activity against Enterobacter aerogenes 17-5 assessed as reduction in bacterial growth in the presence of Avibactam; type: functional
Klebsiella pneumoniae [12] = experiment: Bactericidal activity against Carbapenem- resistant Klebsiella pneumoniae KR 15-8 assessed as reduction in bacterial growth in the presence of avibactam; type: functional
Acinetobacter baumannii [13] = experiment: Bactericidal activity against Carbapenem- resistant Acinetobacter baumannii 17-6 assessed as reduction in bacterial growth in the presence of avibactam; type: functional
Klebsiella pneumoniae [14] = experiment: Bactericidal activity against ESBLs positive Carbapenem-sensitive Klebsiella pneumoniae 17-2 assessed as reduction in bacterial growth; type: functional
Klebsiella pneumoniae [15] = experiment: Bactericidal activity against Carbapenem- resistant Klebsiella pneumoniae KR 15-7 assessed as reduction in bacterial growth; type: functional
Klebsiella aerogenes [16] = experiment: Bactericidal activity against Enterobacter aerogenes 17-1 assessed as reduction in bacterial growth in the presence of avibactam; type: functional
Klebsiella aerogenes [17] = experiment: Antibacterial activity against Enterobacter aerogenes 15-7 assessed as reduction in bacterial growth in the presence of Avibactam; type: functional
Klebsiella pneumoniae [18] = experiment: Antibacterial activity against Klebsiella pneumoniae ATCC BAA-1705 assessed as reduction in bacterial growth in the presence of Avibactam; type: functional
Enterobacter cloacae [19] = experiment: Bactericidal activity against Enterobacter cloacae 17-2 assessed as reduction in bacterial growth in the presence of avibactam; type: functional
Escherichia coli [20] = experiment: Bactericidal activity against ESBLs negative carbapenem-sensitive Escherichia coli 17-9 assessed as reduction in bacterial growth in the presence of avibactam; type: functional
Escherichia coli [21] = experiment: Bactericidal activity against ESBLs negative carbapenem-sensitive Escherichia coli 17-20 assessed as reduction in bacterial growth in the presence of avibactam; type: functional
Pseudomonas aeruginosa [22] = experiment: Antibacterial activity against Carbapenem- sensitive Pseudomonas aeruginosa 17-24 assessed as reduction in bacterial growth in the presence of Avibactam; type: functional
Klebsiella pneumoniae [23] = experiment: Bactericidal activity against Klebsiella pneumoniae ATCC BAA-1705 assessed as reduction in bacterial growth; type: functional
Escherichia coli [24] = experiment: Antibacterial activity against Escherichia coli 15-5 overexpressing extended spectrum beta-lactamases assessed as reduction in bacterial growth in the presence of Avibactam; type: functional
Klebsiella pneumoniae [25] = experiment: Antibacterial activity against Carbapenem- resistant Klebsiella pneumoniae KR 15-5 assessed as reduction in bacterial growth
Acinetobacter baumannii [26] = experiment: Bactericidal activity against Carbapenem- resistant Acinetobacter baumannii 17-3 assessed as reduction in bacterial growth in the presence of avibactam; type: functional
Pseudomonas aeruginosa [27] = experiment: Bactericidal activity against carbapenem-sensitive Pseudomonas aeruginosa 17-9 assessed as reduction in bacterial growth; type: functional
Acinetobacter baumannii [28] = experiment: Bactericidal activity against Carbapenem- resistant Acinetobacter baumannii 17-11 assessed as reduction in bacterial growth in the presence of avibactam; type: functional
Escherichia coli [29] = experiment: Antibacterial activity against ESBLs negative Carbapenem-sensitive Escherichia coli 17-1 assessed as reduction in bacterial growth in the presence of Avibactam; type: functional
Escherichia coli [30] = experiment: Bactericidal activity against Escherichia coli ATCC 25922 assessed as reduction in bacterial growth in the presence of avibactam; type: functional
Escherichia coli [31] = experiment: Bactericidal activity against ESBLs positive Carbapenem-sensitive Escherichia coli 17-18 assessed as reduction in bacterial growth; type: functional
Klebsiella pneumoniae [32] = experiment: Antibacterial activity against ESBLs positive Carbapenem-sensitive Klebsiella pneumoniae 17-3 assessed as reduction in bacterial growth in the presence of Avibactam; type: functional
Acinetobacter baumannii [33] = experiment: Bactericidal activity against Carbapenem- resistant Acinetobacter baumannii 17-2 assessed as reduction in bacterial growth in the presence of avibactam; type: functional
Klebsiella aerogenes [34] = experiment: Antibacterial activity against Enterobacter aerogenes 15-3 assessed as reduction in bacterial growth in the presence of Avibactam; type: functional
Acinetobacter baumannii [35] = experiment: Bactericidal activity against Carbapenem- resistant Acinetobacter baumannii 17-6 assessed as reduction in bacterial growth; type: functional
Klebsiella pneumoniae [36] = experiment: Bactericidal activity against ESBLs negative Carbapenem-sensitive Klebsiella pneumoniae 17-16 assessed as reduction in bacterial growth in the presence of avibactam; type: functional
Pseudomonas aeruginosa [37] = experiment: Bactericidal activity against carbapenem-sensitive Pseudomonas aeruginosa 17-26 assessed as reduction in bacterial growth in the presence of avibactam; type: functional
Klebsiella pneumoniae [38] = experiment: Antibacterial activity against Carbapenem- resistant Klebsiella pneumoniae KR 15-7 assessed as reduction in bacterial growth in the presence of Avibactam; type: functional
Klebsiella pneumoniae [39] = experiment: Antibacterial activity against Carbapenem- resistant Klebsiella pneumoniae KR 15-13 assessed as reduction in bacterial growth in the presence of Avibactam; type: functional
Enterobacter cloacae [40] = experiment: Antibacterial activity against Enterobacter cloacae 17-6 assessed as reduction in bacterial growth; type: functional
Klebsiella pneumoniae [41] = experiment: Antibacterial activity against ESBLs positive Carbapenem-sensitive Klebsiella pneumoniae 17-12 assessed as reduction in bacterial growth in the presence of Avibactam; type: functional
Enterobacter cloacae [42] = experiment: Antibacterial activity against Enterobacter cloacae 17-2 assessed as reduction in bacterial growth in the presence of Avibactam; type: functional
Klebsiella pneumoniae [43] = experiment: Bactericidal activity against Carbapenem- resistant Klebsiella pneumoniae KR 15-7 assessed as reduction in bacterial growth in the presence of avibactam; type: functional
Acinetobacter baumannii [44] = experiment: Antibacterial activity against Carbapenem- resistant Acinetobacter baumannii 17-10 assessed as reduction in bacterial growth in the presence of Avibactam; type: functional
Acinetobacter baumannii [45] = experiment: Antibacterial activity against Carbapenem- resistant Acinetobacter baumannii 17-3 assessed as reduction in bacterial growth in the presence of Avibactam; type: functional
Escherichia coli [46] = experiment: Bactericidal activity against Escherichia coli NCTC 13353 assessed as reduction in bacterial growth in the presence of avibactam; type: functional
Pseudomonas aeruginosa [47] = experiment: Bactericidal activity against carbapenem-sensitive Pseudomonas aeruginosa 17-29 assessed as reduction in bacterial growth in the presence of avibactam; type: functional
Klebsiella pneumoniae [48] = experiment: Bactericidal activity against ESBLs positive Carbapenem-sensitive Klebsiella pneumoniae 17-6 assessed as reduction in bacterial growth in the presence of avibactam; type: functional

SMILES: Nc1nc(/C(=N/OCc2cc(=O)c(O)cn2O)C(=O)N[C@@H]2C(=O)N3C(C(=O)O)=CCS[C@H]23)cs1
- MBC (Pseudomonas aeruginosa [1]): 8 µg/mL (≈ 15.7 µM)
- MIC (Klebsiella pneumoniae [2]): 1 µg/mL
- MIC (Klebsiella pneumoniae [3]): 0.25 µg/mL
- MIC (Klebsiella pneumoniae [4]): > 64 µg/mL
- MBC (Klebsiella pneumoniae [5]): 4 µg/mL
- MBC (Escherichia coli [6]): 4 µg/mL (≈ 7.87 µM)
- MBC (Pseudomonas aeruginosa [7]): 1 µg/mL (≈ 1.97 µM)
- MBC (Klebsiella aerogenes [8]): 4 µg/mL (≈ 7.87 µM)
- MIC (Pseudomonas aeruginosa [9]): 8 µg/mL (≈ 15.7 µM)
- MIC (Pseudomonas aeruginosa [10]): 1 µg/mL
- MIC (Klebsiella aerogenes [11]): 2 µg/mL
- MBC (Klebsiella pneumoniae [12]): 16 µg/mL
- MBC (Acinetobacter baumannii [13]): 16 µg/mL
- MBC (Klebsiella pneumoniae [14]): 2 µg/mL (≈ 3.93 µM)
- MBC (Klebsiella pneumoniae [15]): > 64 µg/mL
- MBC (Klebsiella aerogenes [16]): 4 µg/mL
- MIC (Klebsiella aerogenes [17]): 2 µg/mL
- MIC (Klebsiella pneumoniae [18]): 2 µg/mL
- MBC (Enterobacter cloacae [19]): 8 µg/mL
- MBC (Escherichia coli [20]): 2 µg/mL
- MBC (Escherichia coli [21]): > 0.5 µg/mL
- MIC (Pseudomonas aeruginosa [22]): 4 µg/mL
- MBC (Klebsiella pneumoniae [23]): > 64 µg/mL
- MIC (Escherichia coli [24]): 0.5 µg/mL
- MIC (Klebsiella pneumoniae [25]): > 64 µg/mL
- MBC (Acinetobacter baumannii [26]): 16 µg/mL
- MBC (Pseudomonas aeruginosa [27]): 16 µg/mL (≈ 31.5 µM)
- MBC (Acinetobacter baumannii [28]): > 64 µg/mL
- MIC (Escherichia coli [29]): 0.25 µg/mL
- MBC (Escherichia coli [30]): 0.5 µg/mL
- MBC (Escherichia coli [31]): 32 µg/mL (≈ 62.9 µM)
- MIC (Klebsiella pneumoniae [32]): 4 µg/mL
- MBC (Acinetobacter baumannii [33]): 16 µg/mL
- MIC (Klebsiella aerogenes [34]): 16 µg/mL
- MBC (Acinetobacter baumannii [35]): > 64 µg/mL
- MBC (Klebsiella pneumoniae [36]): 0.06 µg/mL
- MBC (Pseudomonas aeruginosa [37]): 4 µg/mL
- MIC (Klebsiella pneumoniae [38]): 1 µg/mL
- MIC (Klebsiella pneumoniae [39]): 2 µg/mL
- MIC (Enterobacter cloacae [40]): 2 µg/mL (≈ 3.93 µM)
- MIC (Klebsiella pneumoniae [41]): 0.125 µg/mL
- MIC (Enterobacter cloacae [42]): 1 µg/mL
- MBC (Klebsiella pneumoniae [43]): 2 µg/mL
- MIC (Acinetobacter baumannii [44]): 16 µg/mL
- MIC (Acinetobacter baumannii [45]): 16 µg/mL
- MBC (Escherichia coli [46]): 0.5 µg/mL
- MBC (Pseudomonas aeruginosa [47]): 8 µg/mL
- MBC (Klebsiella pneumoniae [48]): 0.5 µg/mL

SMILES: CC(C)(O/N=C(\C(=O)N[C@@H]1C(=O)N2C(C(=O)[O-])=C(C[n+]3ccccc3)CS[C@H]12)c1csc(N)n1)C(=O)O [CEFTAZIDIME]
- MBC (Pseudomonas aeruginosa [1]): 8 µg/mL (≈ 14.6 µM)
- MIC (Klebsiella pneumoniae [2]): 2 µg/mL
- MIC (Klebsiella pneumoniae [3]): 1 µg/mL
- MIC (Klebsiella pneumoniae [4]): > 64 µg/mL
- MBC (Klebsiella pneumoniae [5]): 4 µg/mL
- MBC (Escherichia coli [6]): 0.25 µg/mL (≈ 0.457 µM)
- MBC (Pseudomonas aeruginosa [7]): 1 µg/mL (≈ 1.83 µM)
- MBC (Klebsiella aerogenes [8]): 0.5 µg/mL (≈ 0.915 µM)
- MIC (Pseudomonas aeruginosa [10]): 0.5 µg/mL
- MIC (Klebsiella aerogenes [11]): 0.5 µg/mL
- MBC (Klebsiella pneumoniae [12]): 4 µg/mL
- MBC (Acinetobacter baumannii [13]): 16 µg/mL
- MBC (Klebsiella pneumoniae [14]): 4 µg/mL (≈ 7.32 µM)
- MBC (Klebsiella pneumoniae [15]): > 64 µg/mL
- MBC (Klebsiella aerogenes [16]): 1 µg/mL
- MIC (Klebsiella aerogenes [17]): 1 µg/mL
- MIC (Klebsiella pneumoniae [18]): 4 µg/mL
- MBC (Enterobacter cloacae [19]): 1 µg/mL
- MBC (Escherichia coli [20]): 0.25 µg/mL
- MBC (Escherichia coli [21]): > 2 µg/mL
- MIC (Pseudomonas aeruginosa [22]): 2 µg/mL
- MBC (Klebsiella pneumoniae [23]): > 64 µg/mL
- MIC (Escherichia coli [24]): 1 µg/mL
- MIC (Klebsiella pneumoniae [25]): > 64 µg/mL
- MBC (Acinetobacter baumannii [26]): 8 µg/mL
- MBC (Pseudomonas aeruginosa [27]): 0.5 µg/mL (≈ 0.915 µM)
- MBC (Acinetobacter baumannii [28]): 32 µg/mL
- MIC (Escherichia coli [29]): 0.5 µg/mL
- MBC (Escherichia coli [30]): 1 µg/mL
- MBC (Escherichia coli [31]): 2 µg/mL (≈ 3.66 µM)
- MIC (Klebsiella pneumoniae [32]): 2 µg/mL
- MBC (Acinetobacter baumannii [33]): 8 µg/mL
- MIC (Klebsiella aerogenes [34]): 4 µg/mL
- MBC (Acinetobacter baumannii [35]): > 64 µg/mL
- MBC (Klebsiella pneumoniae [36]): 0.25 µg/mL
- MBC (Pseudomonas aeruginosa [37]): 2 µg/mL
- MIC (Klebsiella pneumoniae [38]): 2 µg/mL
- MIC (Klebsiella pneumoniae [39]): 1 µg/mL
- MIC (Klebsiella pneumoniae [41]): 1 µg/mL
- MIC (Enterobacter cloacae [42]): 1 µg/mL
- MBC (Klebsiella pneumoniae [43]): 2 µg/mL
- MIC (Acinetobacter baumannii [44]): 4 µg/mL
- MIC (Acinetobacter baumannii [45]): 8 µg/mL
- MBC (Escherichia coli [46]): 1 µg/mL
- MBC (Pseudomonas aeruginosa [47]): 4 µg/mL
- MBC (Klebsiella pneumoniae [48]): > 8 µg/mL

SMILES: C[C@@H](O)[C@H]1C(=O)N2C(C(=O)O)=C(S[C@@H]3CN[C@H](C(=O)N(C)C)C3)[C@H](C)[C@H]12 [MEROPENEM]
- MIC (Pseudomonas aeruginosa [9]): 2 µg/mL (≈ 5.22 µM)
- MIC (Enterobacter cloacae [40]): < 0.03 µg/mL
